Here are results for 3 compounds from publication PMC7368294 (Proceedings of the National Academy of Sciences of the …, 2020).

The target of assay [1] is Btα1/Btα2/Btα8/Btβ1 nAChR (Bombus terrestris, UniProt A0A9B0BGM1+A0A9B0F4H3+A0A9B2JDZ7+A0A9B2JMX7). Briefly: cell-based. The conditions noted are these: Oocyte. On the set-up: species or system Xenopus laevis oocytes.
A further assay addresses T1, Amα1/Amα8/Amβ1 nAChR (Apis mellifera, UniProt A0A7M7MMZ9+A0A8U0WQ70+A0A8U0WQC0).
T1 sequence (A0A7M7MMZ9 44-627): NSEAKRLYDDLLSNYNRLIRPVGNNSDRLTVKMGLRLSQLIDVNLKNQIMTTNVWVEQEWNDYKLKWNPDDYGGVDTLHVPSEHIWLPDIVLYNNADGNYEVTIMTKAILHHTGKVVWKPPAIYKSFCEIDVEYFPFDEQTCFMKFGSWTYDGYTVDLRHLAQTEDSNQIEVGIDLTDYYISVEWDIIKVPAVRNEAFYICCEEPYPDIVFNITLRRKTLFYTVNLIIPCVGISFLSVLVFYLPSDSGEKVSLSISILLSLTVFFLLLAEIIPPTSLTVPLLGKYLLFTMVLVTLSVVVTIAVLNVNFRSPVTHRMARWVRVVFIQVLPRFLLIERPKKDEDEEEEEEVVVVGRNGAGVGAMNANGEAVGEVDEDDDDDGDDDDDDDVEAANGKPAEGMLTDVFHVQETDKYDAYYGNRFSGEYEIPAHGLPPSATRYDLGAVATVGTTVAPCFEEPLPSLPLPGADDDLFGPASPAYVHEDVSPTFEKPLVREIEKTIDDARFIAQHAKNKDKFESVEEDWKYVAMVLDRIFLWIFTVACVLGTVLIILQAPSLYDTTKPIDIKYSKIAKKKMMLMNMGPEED
T1 sequence (A0A8U0WQ70 25-537): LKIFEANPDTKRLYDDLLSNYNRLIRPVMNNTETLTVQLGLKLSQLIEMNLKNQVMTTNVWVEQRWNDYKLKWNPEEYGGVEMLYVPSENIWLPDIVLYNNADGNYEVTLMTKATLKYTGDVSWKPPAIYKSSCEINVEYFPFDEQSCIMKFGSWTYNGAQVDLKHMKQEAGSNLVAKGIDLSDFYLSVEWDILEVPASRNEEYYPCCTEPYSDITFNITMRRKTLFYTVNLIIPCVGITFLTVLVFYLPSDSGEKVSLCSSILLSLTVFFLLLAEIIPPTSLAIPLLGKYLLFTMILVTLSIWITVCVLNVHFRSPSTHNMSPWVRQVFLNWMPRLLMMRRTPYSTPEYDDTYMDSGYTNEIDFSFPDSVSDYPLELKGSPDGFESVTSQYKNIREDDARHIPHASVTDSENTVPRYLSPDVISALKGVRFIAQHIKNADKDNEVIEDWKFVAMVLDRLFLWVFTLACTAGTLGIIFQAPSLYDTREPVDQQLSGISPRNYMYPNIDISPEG
T1 sequence (A0A8U0WQC0 25-520): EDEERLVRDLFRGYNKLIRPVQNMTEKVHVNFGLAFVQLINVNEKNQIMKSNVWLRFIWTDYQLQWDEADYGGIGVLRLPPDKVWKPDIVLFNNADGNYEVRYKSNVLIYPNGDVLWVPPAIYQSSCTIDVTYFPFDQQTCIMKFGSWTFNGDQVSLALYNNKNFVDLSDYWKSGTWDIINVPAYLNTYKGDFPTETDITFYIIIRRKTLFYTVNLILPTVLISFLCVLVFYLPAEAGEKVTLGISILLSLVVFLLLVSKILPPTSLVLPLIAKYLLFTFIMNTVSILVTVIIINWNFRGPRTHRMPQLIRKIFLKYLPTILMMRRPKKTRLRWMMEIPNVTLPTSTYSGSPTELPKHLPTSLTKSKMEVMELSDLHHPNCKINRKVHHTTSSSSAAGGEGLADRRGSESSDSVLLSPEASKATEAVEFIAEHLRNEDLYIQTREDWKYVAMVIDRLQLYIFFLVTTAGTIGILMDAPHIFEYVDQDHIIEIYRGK
Briefly: two-electrode voltage clamp of Xenopus oocytes, agonist concentration-response. It counts as cell-based.

Where two headings read alike, the source gives them in different places.

A word on the EC50: it is the midpoint of the concentration-response curve.

Chain of Btα1/Btα2/Btα8/Btβ1 nAChR (A0A9B0F4H3 44-615): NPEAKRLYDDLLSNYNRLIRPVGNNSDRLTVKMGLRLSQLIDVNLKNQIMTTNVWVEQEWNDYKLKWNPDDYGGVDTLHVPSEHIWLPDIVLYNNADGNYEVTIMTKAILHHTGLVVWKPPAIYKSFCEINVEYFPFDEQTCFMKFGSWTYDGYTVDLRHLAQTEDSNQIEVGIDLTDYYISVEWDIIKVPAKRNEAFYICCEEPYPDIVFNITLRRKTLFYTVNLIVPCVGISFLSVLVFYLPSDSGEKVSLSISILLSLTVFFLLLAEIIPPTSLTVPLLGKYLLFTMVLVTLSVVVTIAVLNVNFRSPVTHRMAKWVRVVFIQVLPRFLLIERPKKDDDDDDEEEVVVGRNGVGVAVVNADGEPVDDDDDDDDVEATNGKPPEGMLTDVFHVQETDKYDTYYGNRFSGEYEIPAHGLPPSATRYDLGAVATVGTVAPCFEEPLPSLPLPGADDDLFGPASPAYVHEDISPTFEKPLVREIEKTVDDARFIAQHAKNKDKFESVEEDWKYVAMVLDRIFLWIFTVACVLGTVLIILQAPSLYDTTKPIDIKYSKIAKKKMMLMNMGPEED
Chain of Btα1/Btα2/Btα8/Btβ1 nAChR (A0A9B2JMX7 18-544): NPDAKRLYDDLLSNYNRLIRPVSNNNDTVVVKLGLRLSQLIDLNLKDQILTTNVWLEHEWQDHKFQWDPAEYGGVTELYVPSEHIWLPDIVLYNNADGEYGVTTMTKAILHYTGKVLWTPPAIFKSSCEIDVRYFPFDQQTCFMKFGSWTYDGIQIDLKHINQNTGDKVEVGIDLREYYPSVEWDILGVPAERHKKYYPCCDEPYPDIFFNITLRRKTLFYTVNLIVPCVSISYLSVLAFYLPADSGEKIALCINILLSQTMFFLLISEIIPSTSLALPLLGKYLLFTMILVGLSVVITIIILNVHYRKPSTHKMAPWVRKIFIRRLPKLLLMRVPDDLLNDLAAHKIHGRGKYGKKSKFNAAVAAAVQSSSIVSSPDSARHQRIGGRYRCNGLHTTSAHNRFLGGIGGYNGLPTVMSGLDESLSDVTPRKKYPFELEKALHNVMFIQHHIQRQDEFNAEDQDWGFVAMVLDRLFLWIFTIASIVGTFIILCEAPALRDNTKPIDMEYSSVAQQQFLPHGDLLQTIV
Chain of Btα1/Btα2/Btα8/Btβ1 nAChR (A0A9B2JDZ7 22-535): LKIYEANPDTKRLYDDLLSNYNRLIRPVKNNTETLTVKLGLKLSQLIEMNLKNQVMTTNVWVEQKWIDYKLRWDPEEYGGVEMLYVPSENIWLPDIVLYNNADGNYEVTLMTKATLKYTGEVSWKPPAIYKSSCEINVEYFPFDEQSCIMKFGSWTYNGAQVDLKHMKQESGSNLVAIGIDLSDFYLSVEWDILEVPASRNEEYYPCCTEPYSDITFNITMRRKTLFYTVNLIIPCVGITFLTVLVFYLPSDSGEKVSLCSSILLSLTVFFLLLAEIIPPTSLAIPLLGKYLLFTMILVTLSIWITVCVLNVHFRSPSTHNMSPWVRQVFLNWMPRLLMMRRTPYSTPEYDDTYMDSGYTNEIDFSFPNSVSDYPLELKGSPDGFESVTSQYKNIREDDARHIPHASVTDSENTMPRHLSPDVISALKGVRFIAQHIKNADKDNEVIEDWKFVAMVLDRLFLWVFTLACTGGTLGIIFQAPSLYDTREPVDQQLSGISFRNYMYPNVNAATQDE
Chain of Btα1/Btα2/Btα8/Btβ1 nAChR (A0A9B0BGM1 19-519): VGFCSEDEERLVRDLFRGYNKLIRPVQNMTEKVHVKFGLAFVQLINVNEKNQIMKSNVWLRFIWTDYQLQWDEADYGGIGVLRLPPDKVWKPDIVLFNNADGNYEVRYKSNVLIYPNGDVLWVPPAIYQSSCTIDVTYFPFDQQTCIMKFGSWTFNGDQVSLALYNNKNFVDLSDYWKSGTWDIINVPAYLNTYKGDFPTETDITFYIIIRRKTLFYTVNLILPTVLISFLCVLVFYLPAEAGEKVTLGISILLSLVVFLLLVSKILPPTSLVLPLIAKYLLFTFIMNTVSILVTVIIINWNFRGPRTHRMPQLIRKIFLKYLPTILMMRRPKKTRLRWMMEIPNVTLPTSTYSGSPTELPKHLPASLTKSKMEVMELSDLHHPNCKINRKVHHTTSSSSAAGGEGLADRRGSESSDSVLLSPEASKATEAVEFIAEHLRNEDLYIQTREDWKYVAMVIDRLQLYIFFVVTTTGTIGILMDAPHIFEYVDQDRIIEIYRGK

As for `CN/C(=N\[N+](=O)[O-])NCc1cnc(Cl)s1` [clothianidin], the Emax in assay [1] (read-out: Clothianidin / Imax) was 68 ± 2.9%. On Amα1/Amα8/Amβ1 nAChR, this compound had a half-maximal effective concentration (EC50) of 0.011 µM.

Take `O=[N+]([O-])NC1=NCCN1Cc1ccc(Cl)nc1` [imidacloprid]: in assay [1] (read-out: Imidacloprid / Imax), the Emax was 8.5 ± 0.7%. This compound had an EC50 on Amα1/Amα8/Amβ1 nAChR of 0.0234 µM.

Regarding `N#C/N=C1\SCCN1Cc1ccc(Cl)nc1` [thiacloprid], in assay [1] (read-out: Thiacloprid / Imax), the Emax amounted to 9.2 ± 1.1%. The compound also had an EC50 on Amα1/Amα8/Amβ1 nAChR of 0.0115 µM.
